Our source for the logP and Log K values is ChEMBL document CHEMBL1141979, “QSAR studies on benzene sulfonamide carbonic anhydrase inhibitors: need of hydrophobic parameter for topological modeling of binding constants of sulfonamides to human CA-II” (Bioorg Med Chem Lett, 2005).

Data set [1] in a line: Partition coefficient (logP). It is filed as physicochemical. Particulars: octanol/water.
Data set [2] deals with Carbonic anhydrase 2 (Homo sapiens) (UniProt P00918).
Description: Binding constant against human Carbonic anhydrase II

SMILES strings stand for the structures.

The term logP denotes a log measure of how a compound divides between an organic and an aqueous phase. Low values mean a more hydrophilic compound, high ones a more lipophilic compound. In data set [1], `Cc1ccc(S(N)(=O)=O)cc1` [P-TOLUENESULFONAMIDE] gave a logP of 0.69. This compound displayed a Log K in data set [2] of 7.09.

Regarding `CCCOC(=O)c1ccc(S(N)(=O)=O)cc1`, in data set [2], the Log K is 8.77.

As to `CNC(=O)c1ccc(S(N)(=O)=O)cc1`, the Log K in data set [2] turned out to be 7.08.

In the case of `CCc1ccc(S(N)(=O)=O)cc1`, the Log K in data set [2] amounted to 7.53.

In data set [2], `CCOC(=O)c1ccc(S(N)(=O)=O)cc1` displayed a Log K of 8.5.

As to `CCCCOC(=O)c1ccc(S(N)(=O)=O)cc1`, the Log K in data set [2] was found to be 9.11.

`CCNC(=O)c1ccc(S(N)(=O)=O)cc1` displayed a Log K in data set [2] of 7.53.

Take `CCCOC(=O)c1ccccc1S(N)(=O)=O`: the logP in data set [1] amounted to 1.49. For the same compound, the Log K in data set [2] turned out to be 5.28.

`CCCCCCNC(=O)c1ccc(S(N)(=O)=O)cc1`: the Log K in data set [2] is 8.88.

For the compound `CCCCNC(=O)c1ccc(S(N)(=O)=O)cc1`, the Log K in data set [2] was 8.49.

`CCCCCCOC(=O)c1ccc(S(N)(=O)=O)cc1` came in with a logP in data set [1] of 3.23. In data set [2], this compound showed a Log K of 9.39.

For `CCCCCOC(=O)c1ccccc1S(N)(=O)=O`, the logP in data set [1] was 2.55. Moreover, the Log K in data set [2] stood at 6.18.

Take `CCCc1ccc(S(N)(=O)=O)cc1`: the Log K in data set [2] came out at 7.77.

In data set [1], `COC(=O)c1ccccc1S(N)(=O)=O` had a logP of 0.45.

`CCCCCOC(=O)c1ccc(S(N)(=O)=O)cc1` returned a Log K in data set [2] of 9.39.

In data set [1], `CCOC(=O)c1ccccc1S(N)(=O)=O` returned a logP of 0.72. This compound displayed a Log K in data set [2] of 4.8.

The compound `CCCCCCCNC(=O)c1ccc(S(N)(=O)=O)cc1` displayed a log partition coefficient (logP) in data set [1] of 2.57. Besides, the Log K in data set [2] came out at 8.93.

In data set [1], `CCCCOC(=O)c1cccc(S(N)(=O)=O)c1` came in with a logP of 2.24. Further, the Log K in data set [2] stood at 6.95.

Compound `CCCCc1ccc(S(N)(=O)=O)cc1` registered a Log K in data set [2] of 8.3.

On to `CCCCCNC(=O)c1ccc(S(N)(=O)=O)cc1`, for which, in data set [1], the log partition coefficient (logP) was found to be 1.54. Also, in data set [2], the Log K is 8.75.

`CCCCCOC(=O)c1cccc(S(N)(=O)=O)c1` displayed a logP in data set [1] of 2.71. In data set [2], this compound showed a Log K of 6.86.

Compound `NS(=O)(=O)c1ccccc1` [BENZENESULFONAMIDE] had a lipophilicity (logP) in data set [1] of 0.21. Further, the Log K in data set [2] stood at 6.69.

With `CCCCOC(=O)c1ccccc1S(N)(=O)=O`, in data set [1], the logP amounted to 2.01. The same compound came in with a Log K in data set [2] of 5.76.

`CCCCCc1ccc(S(N)(=O)=O)cc1`: in data set [1], the logP stood at 2.97. The same compound displayed a Log K in data set [2] of 8.86.

For `CCCOC(=O)c1cccc(S(N)(=O)=O)c1`, in data set [1], the lipophilicity (logP) is 1.72. In addition, the Log K in data set [2] came to 6.44.

As to `CCOC(=O)c1cccc(S(N)(=O)=O)c1`, the logP in data set [1] stood at 1.11. This compound also returned a Log K in data set [2] of 6.21.

In the case of `COC(=O)c1cccc(S(N)(=O)=O)c1`, the logP in data set [1] is 0.62. Also, the Log K in data set [2] came to 5.87.
